Holding throughout (type): functional, cell membranes
Data set [1] concerns the target T1, Broad substrate specificity ATP-binding cassette transporter ABCG2 (Homo sapiens, UniProt Q9UNQ0).
T1 sequence (Q9UNQ0 whole entry): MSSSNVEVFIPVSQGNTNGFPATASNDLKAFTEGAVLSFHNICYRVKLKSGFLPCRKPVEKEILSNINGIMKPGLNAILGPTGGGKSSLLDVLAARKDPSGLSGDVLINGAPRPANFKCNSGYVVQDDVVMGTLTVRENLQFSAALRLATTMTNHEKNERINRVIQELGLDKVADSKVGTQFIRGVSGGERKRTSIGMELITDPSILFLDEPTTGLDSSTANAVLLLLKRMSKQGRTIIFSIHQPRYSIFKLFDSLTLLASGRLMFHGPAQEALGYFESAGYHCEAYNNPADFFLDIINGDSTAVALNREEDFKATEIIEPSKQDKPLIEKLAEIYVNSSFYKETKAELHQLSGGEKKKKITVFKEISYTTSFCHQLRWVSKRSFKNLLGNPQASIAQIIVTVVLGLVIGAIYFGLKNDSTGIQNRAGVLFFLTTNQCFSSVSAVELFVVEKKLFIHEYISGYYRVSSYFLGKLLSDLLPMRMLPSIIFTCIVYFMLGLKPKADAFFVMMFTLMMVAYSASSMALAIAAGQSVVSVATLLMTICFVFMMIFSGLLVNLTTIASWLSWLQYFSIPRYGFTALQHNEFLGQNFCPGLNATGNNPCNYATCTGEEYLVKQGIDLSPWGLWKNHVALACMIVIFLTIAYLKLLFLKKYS
The data set is described as follows: (§1) TP_TRANSPORTER: uptake (vesicle) in membrane vesicle from ABCG2-R482-expressing HEK293 cells. The conditions noted are these: hek293.

Data set [2] deals with Multidrug resistance associated protein (Homo sapiens) (UniProt Q96QA9). The experiment in a line: TP_TRANSPORTER: uptake (vesicle) in membrane vesicles from MRP3-expressing HEK293 cells.
Sequence of Multidrug resistance associated protein (Homo sapiens) (Q96QA9 as listed by the source): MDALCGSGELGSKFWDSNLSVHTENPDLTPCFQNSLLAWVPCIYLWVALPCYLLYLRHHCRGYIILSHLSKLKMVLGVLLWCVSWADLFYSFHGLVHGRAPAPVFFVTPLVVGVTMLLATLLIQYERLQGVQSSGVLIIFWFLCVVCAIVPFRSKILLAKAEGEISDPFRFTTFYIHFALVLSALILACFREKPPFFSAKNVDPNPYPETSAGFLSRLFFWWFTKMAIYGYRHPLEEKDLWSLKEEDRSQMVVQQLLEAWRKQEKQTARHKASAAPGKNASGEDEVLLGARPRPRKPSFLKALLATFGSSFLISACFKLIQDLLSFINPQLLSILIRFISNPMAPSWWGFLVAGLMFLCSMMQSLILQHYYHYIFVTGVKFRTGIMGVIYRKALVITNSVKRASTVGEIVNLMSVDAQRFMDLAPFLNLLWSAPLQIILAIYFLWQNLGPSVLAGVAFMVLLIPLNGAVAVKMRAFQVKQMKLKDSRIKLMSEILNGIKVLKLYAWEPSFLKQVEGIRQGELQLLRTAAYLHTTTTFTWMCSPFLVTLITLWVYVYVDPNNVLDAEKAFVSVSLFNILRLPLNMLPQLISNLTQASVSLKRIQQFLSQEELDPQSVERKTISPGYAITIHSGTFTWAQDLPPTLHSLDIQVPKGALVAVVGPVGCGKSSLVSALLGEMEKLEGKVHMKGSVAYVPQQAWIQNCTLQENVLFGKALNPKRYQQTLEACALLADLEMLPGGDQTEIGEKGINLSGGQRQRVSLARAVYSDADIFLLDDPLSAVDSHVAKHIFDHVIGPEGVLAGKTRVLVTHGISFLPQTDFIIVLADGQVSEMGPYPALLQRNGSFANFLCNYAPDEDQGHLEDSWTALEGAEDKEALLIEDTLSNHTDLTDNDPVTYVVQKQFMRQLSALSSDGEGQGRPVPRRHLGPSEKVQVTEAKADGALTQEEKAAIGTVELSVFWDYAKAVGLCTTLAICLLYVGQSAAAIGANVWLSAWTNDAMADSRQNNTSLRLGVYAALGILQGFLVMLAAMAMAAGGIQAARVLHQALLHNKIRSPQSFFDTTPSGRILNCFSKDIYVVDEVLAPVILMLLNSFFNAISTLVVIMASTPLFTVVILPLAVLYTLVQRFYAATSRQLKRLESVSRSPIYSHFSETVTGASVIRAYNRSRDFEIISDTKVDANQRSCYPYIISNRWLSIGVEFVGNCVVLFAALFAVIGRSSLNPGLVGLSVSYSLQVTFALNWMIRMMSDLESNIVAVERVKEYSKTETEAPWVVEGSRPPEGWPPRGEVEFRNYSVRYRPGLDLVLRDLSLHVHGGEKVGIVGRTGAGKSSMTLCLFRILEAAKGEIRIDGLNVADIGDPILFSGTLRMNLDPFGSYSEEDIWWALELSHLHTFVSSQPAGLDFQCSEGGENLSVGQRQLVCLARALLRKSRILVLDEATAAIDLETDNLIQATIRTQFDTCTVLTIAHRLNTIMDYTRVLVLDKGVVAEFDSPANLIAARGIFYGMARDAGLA
Data set [3] has as its target ATP-binding cassette sub-family C member 2 (Homo sapiens, UniProt Q92887). The experiment in a line: TP_TRANSPORTER: uptake (vesicle) in membrane vesicle from MRP2-expressing HEK293 cells.
Data set [4] has as its target T2, ABCG2 (R482) (Homo sapiens, UniProt Q9UNQ0).
T2 sequence (Q9UNQ0 whole entry): T1 sequence (Q9UNQ0 whole entry)
The description is as §1. The conditions noted are these: membrane vesicles from ABCG2-R482-expressing HEK293 cells.

The Km is the substrate concentration at which the rate is half of its maximum.

The structures appear in SMILES notation.

Sequence of ATP-binding cassette sub-family C member 2 (Q92887 whole entry): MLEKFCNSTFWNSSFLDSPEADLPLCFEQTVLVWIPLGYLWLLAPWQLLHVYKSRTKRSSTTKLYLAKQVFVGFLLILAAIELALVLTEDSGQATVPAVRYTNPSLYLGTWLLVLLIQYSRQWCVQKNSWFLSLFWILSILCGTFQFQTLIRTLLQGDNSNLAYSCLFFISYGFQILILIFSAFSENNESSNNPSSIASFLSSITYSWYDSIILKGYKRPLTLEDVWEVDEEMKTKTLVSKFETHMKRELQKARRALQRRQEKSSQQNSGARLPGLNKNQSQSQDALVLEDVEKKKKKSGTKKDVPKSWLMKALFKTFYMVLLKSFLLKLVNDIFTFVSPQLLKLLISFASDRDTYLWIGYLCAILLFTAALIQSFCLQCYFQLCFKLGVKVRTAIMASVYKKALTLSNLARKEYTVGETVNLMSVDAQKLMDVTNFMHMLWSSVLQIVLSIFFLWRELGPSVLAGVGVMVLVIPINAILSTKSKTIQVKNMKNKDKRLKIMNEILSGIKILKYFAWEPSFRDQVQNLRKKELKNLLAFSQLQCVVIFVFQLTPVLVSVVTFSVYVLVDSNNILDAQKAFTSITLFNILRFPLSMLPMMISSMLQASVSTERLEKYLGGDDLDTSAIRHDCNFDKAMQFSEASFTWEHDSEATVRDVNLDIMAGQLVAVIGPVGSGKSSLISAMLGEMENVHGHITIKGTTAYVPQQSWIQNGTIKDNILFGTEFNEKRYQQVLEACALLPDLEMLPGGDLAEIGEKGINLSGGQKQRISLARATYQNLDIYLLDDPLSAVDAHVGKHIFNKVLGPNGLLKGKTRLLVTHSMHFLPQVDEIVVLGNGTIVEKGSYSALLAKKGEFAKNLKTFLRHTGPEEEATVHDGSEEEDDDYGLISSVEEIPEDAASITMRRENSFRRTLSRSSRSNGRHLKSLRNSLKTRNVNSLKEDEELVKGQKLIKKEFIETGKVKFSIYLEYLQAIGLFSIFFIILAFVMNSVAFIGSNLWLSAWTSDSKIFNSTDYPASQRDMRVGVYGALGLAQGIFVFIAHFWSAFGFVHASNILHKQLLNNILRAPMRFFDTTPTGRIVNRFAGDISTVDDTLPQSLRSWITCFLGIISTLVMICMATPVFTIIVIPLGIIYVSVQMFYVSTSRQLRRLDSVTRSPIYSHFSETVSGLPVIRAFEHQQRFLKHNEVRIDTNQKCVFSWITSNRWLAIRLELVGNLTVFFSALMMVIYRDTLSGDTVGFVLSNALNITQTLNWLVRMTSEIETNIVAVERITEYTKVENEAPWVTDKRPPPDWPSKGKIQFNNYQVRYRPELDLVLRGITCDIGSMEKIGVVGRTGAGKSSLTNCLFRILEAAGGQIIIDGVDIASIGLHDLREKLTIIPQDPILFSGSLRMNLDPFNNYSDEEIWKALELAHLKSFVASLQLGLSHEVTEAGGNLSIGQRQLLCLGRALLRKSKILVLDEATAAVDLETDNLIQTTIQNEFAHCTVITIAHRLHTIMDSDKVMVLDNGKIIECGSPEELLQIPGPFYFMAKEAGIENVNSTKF

On to `CN(Cc1cnc2nc(N)nc(N)c2n1)c1ccc(C(=O)N[C@@H](CCC(=O)N[C@@H](CCC(=O)N[C@@H](CCC(=O)N[C@@H](CCC(=O)O)C(=O)O)C(=O)O)C(=O)O)C(=O)O)cc1`, for which the Activity result in data set [1] is “substrate []”.
Turning to `CN(Cc1cnc2nc(N)nc(N)c2n1)c1ccc(C(=O)N[C@@H](CCC(=O)N[C@@H](CCC(=O)N[C@@H](CCC(=O)O)C(=O)O)C(=O)O)C(=O)O)cc1`, in data set [1], the Activity result is “substrate []”.
Consider `Nc1nc(=O)c2c([nH]1)NCC(CNc1ccc(C(=O)N[C@@H](CCC(=O)O)C(=O)O)cc1)N2C=O` (some centres not stated), for which the Activity entry in data set [2] was “substrate []”.
On to `C[C@]12CC[C@@H]3c4ccc(O)cc4CC[C@H]3[C@@H]1CC[C@@H]2O[C@@H]1O[C@H](C(=O)O)[C@@H](O)[C@H](O)[C@H]1O` [ESTRADIOL 17B GLUCURONIDE], for which the Activity entry in data set [1] is “substrate []”.
Turning to `Nc1nc2ncc(CNc3ccc(C(=O)N[C@@H](CCC(=O)O)C(=O)O)cc3)nc2c(=O)[nH]1` [FOLIC ACID], in data set [1], the Activity result was “substrate []”.
As to `Nc1nc2c(c(=O)[nH]1)N(C=O)C(CNc1ccc(C(=O)N[C@@H](CCC(=O)O)C(=O)O)cc1)CN2` (some centres not stated) [LEUCOVORIN], the Activity entry in data set [3] is “substrate []”.
As to `CN(Cc1cnc2nc(N)nc(N)c2n1)c1ccc(C(=O)N[C@@H](CCC(=O)O)C(=O)O)cc1` [METHOTREXATE], the Michaelis-Menten constant (Km) in data set [4] turned out to be 1300 µM.
